The target of data set [1] is T1, P2X purinoceptor 7 (Homo sapiens, UniProt Q99572).
T1 sequence (Q99572 whole entry): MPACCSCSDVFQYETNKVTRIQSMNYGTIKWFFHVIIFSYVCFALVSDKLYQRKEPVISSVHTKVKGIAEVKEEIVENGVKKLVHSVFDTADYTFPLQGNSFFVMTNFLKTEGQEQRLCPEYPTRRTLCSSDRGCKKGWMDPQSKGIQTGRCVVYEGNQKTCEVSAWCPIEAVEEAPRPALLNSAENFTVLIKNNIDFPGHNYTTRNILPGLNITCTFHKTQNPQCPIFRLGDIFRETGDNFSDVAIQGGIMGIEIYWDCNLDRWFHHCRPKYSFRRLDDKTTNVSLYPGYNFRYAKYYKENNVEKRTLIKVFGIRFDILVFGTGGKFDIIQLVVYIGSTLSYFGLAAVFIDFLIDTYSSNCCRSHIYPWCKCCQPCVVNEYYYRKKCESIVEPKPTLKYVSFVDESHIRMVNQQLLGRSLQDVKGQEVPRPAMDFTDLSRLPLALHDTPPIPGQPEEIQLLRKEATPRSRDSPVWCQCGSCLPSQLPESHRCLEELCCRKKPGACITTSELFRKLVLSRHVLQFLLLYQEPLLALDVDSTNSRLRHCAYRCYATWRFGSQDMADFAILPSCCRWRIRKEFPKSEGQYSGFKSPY
Description: Antagonist activity at human P2X7 receptor expressed in human U373 cells assessed as inhibition of BzATP-induced Yo-Pro uptake. Format: functional, cell-based, U-373MG ATCC.

Data set [2] in a line: Metabolic stability in rat hepatocytes assessed as intrinsic clearance assessed per million cells. Format: ADME, cell-based, Liver, Hepatocyte.
The nature of data set [3]: Volume of distribution at steady state in rat. Conditions: in vivo, read-out: Vdss. Format: ADME, organism-based.
Data set [4] is described as follows: Plasma clearance in rat. It is filed as ADME, organism-based.
A short description of data set [5]: Half life in rat. Format: ADME, organism-based. Conditions: in vivo.
Data set [6] deals with T1, P2X purinoceptor 7. Briefly: Antagonist activity at P2X7 receptor in human THP1 cells assessed as inhibition of BzATP-induced ethidium uptake. It is filed as functional, cell-based, THP-1.
In data set [7] the target is T1, P2X purinoceptor 7. Briefly: Antagonist activity at P2X7 receptor in human THP1 cells assessed as effect on BzATP-induced Yo-Pro uptake. It is filed as functional, cell-based, THP-1.
In data set [8] the test system is Rattus norvegicus. Description: Antiinflammatory activity in po dosed rat acute inflammatory pain model assessed as inhibition of FCA-induced weight bearing capacity. It is filed as functional.
The subject of data set [9] is Rattus norvegicus. Description: Analgesic activity in po dosed rat model of joint pain assessed as inhibition of FCA-induced weight bearing capacity administered twice daily for 5 days. Format: functional. Particulars: 120 h.
Data set [10] is described as follows: Metabolic stability in human liver microsomes assessed as half life. It is filed as ADME, Microsome.
The nature of data set [11]: Oral bioavailability in rat. Format: ADME, organism-based. Particulars: in vivo.
Data set [12] in a line: Volume of distribution at steady state in iv dosed rat. It is filed as ADME, organism-based. Conditions: in vivo, read-out: Vdss.
Data set [13] in a line: Plasma clearance in iv dosed rat. It is filed as ADME, organism-based.
Data set [14] is described as follows: Half life in iv dosed rat. It is filed as ADME, organism-based. Particulars: in vivo.
Data set [15] deals with T1, P2X purinoceptor 7. Description: Antagonist activity at human P2X7 receptor expressed in HEK293 cells assessed as inhibition of BzATP-induced calcium influx. Format: functional, cell-based.
Data set [16] has as its target T2, P2X purinoceptor 7 (Rattus norvegicus, UniProt Q64663).
T2 sequence (Q64663 whole entry): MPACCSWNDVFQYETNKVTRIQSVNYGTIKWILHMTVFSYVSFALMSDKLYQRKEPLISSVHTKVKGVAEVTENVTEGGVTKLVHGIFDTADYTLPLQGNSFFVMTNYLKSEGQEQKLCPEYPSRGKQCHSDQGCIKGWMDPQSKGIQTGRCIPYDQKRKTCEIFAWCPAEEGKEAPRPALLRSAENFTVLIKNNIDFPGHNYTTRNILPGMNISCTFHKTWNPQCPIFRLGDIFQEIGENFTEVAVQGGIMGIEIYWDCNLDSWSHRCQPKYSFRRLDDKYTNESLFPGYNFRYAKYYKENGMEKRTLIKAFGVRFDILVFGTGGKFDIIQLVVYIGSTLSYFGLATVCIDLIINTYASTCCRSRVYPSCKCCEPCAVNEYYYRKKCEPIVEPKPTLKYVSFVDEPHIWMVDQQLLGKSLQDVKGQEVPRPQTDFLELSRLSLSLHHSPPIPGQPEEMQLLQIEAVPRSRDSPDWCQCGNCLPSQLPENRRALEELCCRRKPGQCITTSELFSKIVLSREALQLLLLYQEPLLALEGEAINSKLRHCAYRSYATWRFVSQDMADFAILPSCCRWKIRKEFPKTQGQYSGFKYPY
Description: Activity at rat P2X7 receptor expressed in HEK cells assessed as effect on BzATP-induced ethidium uptake. Format: cell-based, HEK293.

Bounds are passed on as bounds.

For `Fc1cccc(CNC2=N[C@@H](c3ccccc3Cl)[C@@H](c3ccccc3Cl)N2)c1`, in [1], the concentration for half-maximal inhibition (IC50) was 398 nM.

On to `O=C(NCC12CC3CC(CC(C3)C1)C2)c1cc(Cl)ccc1Cl`, for which, in [2], the intrinsic clearance (hepatocyte CLint) was greater than 100 µL/min/1e6 cells. Also, in [3], the Vd was 3 L/kg. This molecule also gave a clearance in data set [4] of 100 mL/min/kg. In data set [5], this molecule had a half-life of 0.5 h.

With `O=C(CC12CC3CC(CC(C3)C1)C2)Nc1ccccc1`, the hepatocyte CLint in data set [2] is 5 µL/min/1e6 cells. Also, the Vd in data set [3] came to 2 L/kg. For the same molecule, the clearance in data set [4] was 47 mL/min/kg. This molecule also gave a half-life in data set [5] of 1 h. The Kb in [6] (read-out: pA2 (converted)) is 39.8 nM.

As for `Clc1ccccc1CCC1=N[C@@H](c2ccccc2)[C@@H](c2ccccc2)N1`, in [1], the IC50 was 63.1 nM.

For `c1ccc(CCC2=N[C@H](c3ccccc3)[C@H](c3ccccc3)N2)cc1`, the IC50 in data set [1] was 79.4 nM.

Turning to `c1ccc(CCCCC2=N[C@H](c3ccccc3)[C@H](c3ccccc3)N2)cc1`, the IC50 in data set [1] was 631 nM.

Consider `Fc1cccc(COC2=N[C@H](c3ccccc3)[C@H](c3ccccc3)N2)c1`, for which the IC50 in data set [1] was 200 nM.

Turning to `COc1ccc(CCC2=N[C@H](c3ccccc3)[C@H](c3ccccc3)N2)cc1`, in data set [1], the IC50 was greater than 3160 nM.

For the molecule `Cc1cccc([C@H]2NC(NCc3cccc(F)c3)=N[C@H]2c2cccc(C)c2)c1`, the IC50 in data set [1] is 126 nM.

`Cc1cc(-c2ccc(Cl)c(C(=O)NCC3(O)CCCCCC3)c2)nn1CC(=O)NCCN(C)C`: the IC50 in data set [7] is 3.16 nM.

As to `CN1C(=O)CCC1C(=O)NCc1ccc(Cl)cc1Cl` (centres undefined), the ED50 in data set [8] and in data set [9] was less than 20 mg/kg in each case.

As to `C[C@H](CO)n1ccc2c(NC(=O)Cc3ccc(Cl)c(C(F)(F)F)c3)cccc2c1=O`, the half-life in data set [10] was 1 h. The same molecule had a bioavailability in data set [11] of 25%. The IC50 in [6] was 1.26 nM.

As for `Cc1ccc2c(=O)n([C@H](C)CO)ccc2c1NC(=O)Cc1ccc(C(F)(F)F)c(F)c1`, the half-life in data set [10] is 1.5 h. Further, the bioavailability in [11] was determined as 25%.

Take `Cc1ccccc1N=C(NC#N)N1CCN(C(=O)Nc2ccc(Cl)cc2)C(c2ccccc2)C1` (centres undefined): the Vd in data set [12] was determined as 5.3 L/kg. This molecule yielded a clearance in data set [13] of 68 mL/min/kg. In data set [14], this molecule had a half-life of 0.9 h.

For `Cc1ccccc1N1CCN(C(=O)[C@H](Cc2ccc(OS(=O)(=O)c3cccc4cnccc34)cc2)N(C)S(=O)(=O)c2cccc3cnccc23)CC1`, the IC50 in data set [15] was 15.8 nM.

`c1ccc([C@H]2N=C(C3Cc4ccccc4C3)N[C@H]2c2ccccc2)cc1`: in data set [1], the half-maximal inhibitory concentration (IC50) is 31.6 nM.

As to `Fc1cccc(CSC2=N[C@@H](c3ccccc3)[C@@H](c3ccccc3)N2)c1`, in data set [1], the IC50 is 200 nM.

As for `Fc1ccccc1CC1=N[C@H](c2ccccc2)[C@H](c2ccccc2)N1`, the IC50 in [1] was 631 nM.

For `CN([C@@H](Cc1ccc(OS(=O)(=O)c2cccc3cnccc23)cc1)C(=O)N1CCN(c2cccc(Cl)c2)CC1)S(=O)(=O)c1cccc2cnccc12`, the IC50 in data set [15] was 12.6 nM.

In the case of `O=C(CNS(=O)(=O)c1cccc2cnccc12)N1CCN(c2ccc(F)cc2)CC1`, the IC50 in data set [15] was 63.1 nM.

Turning to `Fc1cccc(CC2=N[C@H](c3ccccc3)[C@H](c3ccccc3)N2)c1`, the IC50 in data set [1] was 79.4 nM.

On to `O=C([C@H](Cc1ccc(OS(=O)(=O)c2cccc3cnccc23)cc1)NS(=O)(=O)c1cccc2cnccc12)N1CCN(c2ccc(F)cc2)CC1`, for which the concentration for half-maximal inhibition (IC50) in data set [15] was 6.31 nM.

Take `C=C1C2(C(=O)NNc3ccccc3)CCC(C2)C1(C)C` (centres undefined): the IC50 in data set [16] and in [6] was 50.1 nM each time.

With `Clc1ccc(CCC2=N[C@H](c3ccccc3)[C@H](c3ccccc3)N2)cc1`, the IC50 in [1] is greater than 1000 nM.

As to `O=C(CNS(=O)(=O)c1cccc2cnccc12)N1CCN(c2ccc([N+](=O)[O-])cc2)CC1`, the IC50 in data set [15] was 20 nM.

Source of the values: ChEMBL document CHEMBL1151820, “Antagonists of the P2X(7) receptor. From lead identification to drug development” (J Med Chem, 2009).
